# Target: PrP^res (Homo sapiens, UniProt P04156)
# Format: cell-based
structure (smiles),measurement,value
"COC[C@H]1O[C@@H]2O[C@H]3[C@H](O)[C@@H](OC)[C@@H](O[C@H]4[C@H](O)[C@@H](OC)[C@@H](O[C@H]5[C@H](O)[C@@H](OC)[C@@H](O[C@H]6[C@H](O)[C@@H](OC)[C@@H](O[C@H]7[C@H](O)[C@@H](OC)[C@@H](O[C@H]8[C@H](O)[C@@H](OC)[C@@H](O[C@H]1[C@H](O)[C@H]2OC)O[C@@H]8COC)O[C@@H]7COC)O[C@@H]6COC)O[C@@H]5COC)O[C@@H]4COC)O[C@@H]3COC [DIMEB, heptakis(2,6-O-dimethyl)beta-cyclodextrin]",PrP^Sc accumulation,significantly decreased

# — patent EP3603649A1 (priority 2018, dated 2020)
